According to US11242333B2, “Inhibitors of plasma kallikrein” (Kalvista Pharmaceuticals Limited, priority 2013, dated 2022):

Assays:
[1] = target: Human plasma kallikrein (Homo sapiens (Human), UniProt P03952); assay: Determination of the IC50 for plasma kallikrein; format: biochemical; details: 37° C., fluorogenic substrate H-DPro-Phe-Arg-AFC; read-out: IC50 (human PKal)
Procedure: Determination of the IC50 for plasma kallikrein
(§1) Plasma kallikrein inhibitory activity in vitro was determined using standard published methods (see e.g. Johansen et al., Int. J. Tiss. Reac. 1986, 8, 185; Shori et al., Biochem. Pharmacol., 1992, 43, 1209; Stürzebecher et al., Biol. Chem. Hoppe-Seyler, 1992, 373, 1025). Human plasma kallikrein (Protogen) was incubated at 37° C. with the fluorogenic substrate H-DPro-Phe-Arg-AFC and various concentrations of the test compound. Residual enzyme activity (initial rate of reaction) was determined by measuring the change in […] at 410 nm and the IC50 value for the test compound was determined.

[2] = target: Human KLK1 (Homo sapiens (Human), UniProt P06870); assay: Determination of the IC50 for KLK1; format: biochemical; details: 37° C., fluorogenic substrate H-DVal-Leu-Arg-AFC
Procedure: Determination of the IC50 for KLK1
as §1, with “KLK1” for “Plasma kallikrein”, “KLK1 (Callbiochem)” for “plasma kallikrein (Protogen)”, “H-DVal-Leu-Arg-AFC” for “H-DPro-Phe-Arg-AFC”

Sequence of Human plasma kallikrein (P03952 391-638): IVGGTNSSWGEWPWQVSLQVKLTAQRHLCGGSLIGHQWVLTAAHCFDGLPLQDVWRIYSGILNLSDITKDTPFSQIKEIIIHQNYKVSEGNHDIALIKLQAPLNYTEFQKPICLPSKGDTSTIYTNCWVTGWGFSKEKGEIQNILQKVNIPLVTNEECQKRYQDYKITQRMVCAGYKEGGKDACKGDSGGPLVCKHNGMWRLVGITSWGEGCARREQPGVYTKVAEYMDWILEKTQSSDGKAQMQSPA
Sequence of Human plasma kallikrein (P03952 20-390 partner): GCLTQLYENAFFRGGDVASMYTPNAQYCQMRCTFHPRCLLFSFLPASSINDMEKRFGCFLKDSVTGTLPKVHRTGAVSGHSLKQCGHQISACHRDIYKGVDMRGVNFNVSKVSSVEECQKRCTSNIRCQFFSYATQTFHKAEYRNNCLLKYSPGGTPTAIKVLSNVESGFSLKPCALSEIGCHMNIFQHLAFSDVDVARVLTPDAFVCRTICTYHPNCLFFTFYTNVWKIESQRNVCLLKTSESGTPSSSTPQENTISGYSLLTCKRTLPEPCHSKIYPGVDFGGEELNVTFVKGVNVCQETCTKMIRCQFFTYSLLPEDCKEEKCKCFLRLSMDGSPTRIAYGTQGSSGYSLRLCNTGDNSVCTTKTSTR
Sequence of Human KLK1 (P06870 25-262): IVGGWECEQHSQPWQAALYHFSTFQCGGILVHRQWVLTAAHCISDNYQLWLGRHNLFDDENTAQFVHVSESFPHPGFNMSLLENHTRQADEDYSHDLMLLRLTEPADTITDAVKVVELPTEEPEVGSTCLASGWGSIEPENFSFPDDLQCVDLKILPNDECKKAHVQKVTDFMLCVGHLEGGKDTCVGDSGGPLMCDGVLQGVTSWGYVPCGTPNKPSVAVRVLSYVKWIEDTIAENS

SMILES | IC50 [1] [nM] | IC50 [2] [nM]
Cc1cnn(Cc2ccc(Cc3cncc(C(=O)NCc4ccc5c(N)nccc5c4)c3)cc2)c1 [Example 1] | 3.86 | 
Cc1cnn(Cc2ccc(Cc3cncc(C(=O)NCc4cnc5[nH]ccc5c4)c3)cc2)c1 [Example 2, 5-({4-[(4-Methylpyrazol-1-yl)methyl]phenyl}methyl)-N-{7H-pyrrolo[2,3-b]pyridin-5-ylmethyl}pyridine-3-carboxamide] | 216 | 
Cc1cnn(Cc2ccc(Cc3ccnc(C(=O)NCc4cnc5[nH]ccc5c4)c3)cc2)c1 [Example 4, 4-({4-[(4-Methylpyrazol-1-yl)methyl]phenyl}methyl)-N-{7H-pyrrolo[2,3-b]pyridin-5-ylmethyl}pyridine-2-carboxamide] | 6610 | 
O=C(NCc1cnc2[nH]ccc2c1)c1ccc(=O)n(Cc2ccc(Cn3ccccc3=O)cc2)c1 [Example 6, 6-Oxo-1-({4-[(2-oxopyridin-1-yl)methyl]phenyl}methyl)-N-{7H-pyrrolo[2,3-b]pyridin-5-ylmethyl}pyridine-3-carboxamide] | 580 | 27800
